For the assay, the target named is Neuropilin-1 (Homo sapiens) (UniProt O14786). The experiment in a line: NRP-1 b1b2 CendR peptide binding inhibitors, dose response, biochemical, FP and AlphaScreen panel (AID 651650). The settings on record: NRP-1 b1b2 / RPARPAR peptide binding, FP or AlphaScreen.
The mark [1] stands for this setting: AlphaScreen, run 1, individual panel run IC50.
Where [2] appears, read: FP, run 1, individual panel run IC50.
Where [3] appears, read: FP, run 2, individual panel run IC50.

The source made the active and inactive calls.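 Rule for the calls: active = mean IC50 below 20 µM in each of the two panels, so potent in both; inactive = the rest.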 Where only a bound is given, the exact number is not on record here.

Sequence of Neuropilin-1 (Homo sapiens) (O14786 whole entry, looked up): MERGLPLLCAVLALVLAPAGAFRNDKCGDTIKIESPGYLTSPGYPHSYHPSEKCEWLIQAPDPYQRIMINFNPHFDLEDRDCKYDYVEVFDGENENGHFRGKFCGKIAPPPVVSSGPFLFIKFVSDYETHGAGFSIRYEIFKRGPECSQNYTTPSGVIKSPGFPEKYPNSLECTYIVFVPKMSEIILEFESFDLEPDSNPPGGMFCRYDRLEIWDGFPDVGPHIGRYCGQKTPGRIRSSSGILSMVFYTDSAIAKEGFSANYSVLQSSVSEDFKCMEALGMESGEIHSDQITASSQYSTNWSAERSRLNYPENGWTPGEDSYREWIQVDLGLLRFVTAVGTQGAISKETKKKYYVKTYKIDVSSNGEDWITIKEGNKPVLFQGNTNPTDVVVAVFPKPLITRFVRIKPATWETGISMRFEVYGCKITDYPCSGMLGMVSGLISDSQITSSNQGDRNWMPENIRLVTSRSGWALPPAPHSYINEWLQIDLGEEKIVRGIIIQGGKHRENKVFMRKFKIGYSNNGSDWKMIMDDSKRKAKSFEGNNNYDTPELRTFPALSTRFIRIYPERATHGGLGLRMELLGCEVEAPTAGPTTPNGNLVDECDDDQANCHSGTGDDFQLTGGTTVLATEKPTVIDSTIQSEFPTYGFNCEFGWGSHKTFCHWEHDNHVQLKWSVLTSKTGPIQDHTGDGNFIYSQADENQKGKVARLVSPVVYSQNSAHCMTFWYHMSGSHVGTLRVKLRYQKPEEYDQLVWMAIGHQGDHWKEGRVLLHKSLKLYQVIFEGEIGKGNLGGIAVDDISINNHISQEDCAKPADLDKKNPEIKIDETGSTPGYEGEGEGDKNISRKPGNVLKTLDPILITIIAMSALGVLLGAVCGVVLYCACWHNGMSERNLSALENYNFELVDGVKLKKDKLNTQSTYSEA

Consider `CCC(=O)Nc1cc2c3c(c1)CCC(=O)N3CCC2`, for which the IC50 was 13.8 µM (AlphaScreen, mean of runs); 13.8 µM under setting [1]; > 95 µM (inactive) (FP, mean of runs); greater than 95 µM under setting [2]; greater than 95 µM under setting [3].
With `CC(Nc1ccc2ccccc2c1)C(=O)N/N=C/c1ccncc1` (stereo not given), the IC50 was > 100 µM (inactive) (AlphaScreen, mean of runs); greater than 100 µM under setting [1]; > 95 µM (inactive) (FP, mean of runs); greater than 95 µM under setting [2]; greater than 95 µM under setting [3].
`Oc1ccc(-c2nc3ncccn3c2Nc2ccc3c(c2)OCO3)cc1`: the IC50 was > 100 µM (inactive) (AlphaScreen, mean of runs); greater than 100 µM under setting [1]; > 95 µM (inactive) (FP, mean of runs); greater than 95 µM under setting [2]; greater than 95 µM under setting [3].
`Cc1cc2c(cc1C)NC(c1nc3ccccc3[nH]1)C1=C(CC(C)(C)CC1=O)N2` (stereo not given): the IC50 is > 100 µM (inactive) (AlphaScreen, mean of runs); greater than 100 µM under setting [1]; > 95 µM (inactive) (FP, mean of runs); greater than 95 µM under setting [2]; greater than 95 µM under setting [3].
Turning to `N/C(CSc1ccc(Cl)cc1)=N\S(=O)(=O)c1ccc(Cl)cc1`, the IC50 was > 100 µM (inactive) (AlphaScreen, mean of runs); greater than 100 µM under setting [1]; > 95 µM (inactive) (FP, mean of runs); greater than 95 µM under setting [2]; greater than 95 µM under setting [3].
For `CCOC(=O)C1=C(C)NC2=C(C(=O)CCC2)C1c1cn(Cc2ccc(Cl)cc2Cl)nc1-c1ccccc1` (stereo not given), the IC50 entry (AlphaScreen, mean of runs) was “inactive”. In addition, the IC50 is 35.5 µM under setting [1]; > 95 µM (inactive) (FP, mean of runs); greater than 95 µM under setting [2]; greater than 95 µM under setting [3].
On to `CCO[C@@H]1OC(C(=O)NCc2ccccc2)=C[C@H](c2ccc(Br)cc2)[C@H]1CCCO`, for which the IC50 entry (AlphaScreen, mean of runs) is “inactive”. Besides, the IC50 under setting [1] was determined as 22.1 µM; the IC50 (FP, mean of runs) is > 95 µM (inactive); the IC50 under setting [2] is greater than 95 µM; the IC50 under setting [3] is greater than 95 µM.
Consider `O=C(COC(=O)c1ccccn1)c1ccc([N+](=O)[O-])cc1`, for which the IC50 by setting is: (AlphaScreen, mean of runs) > 100 µM (inactive); under setting [1], greater than 100 µM; (FP, mean of runs) > 95 µM (inactive); under setting [2], greater than 95 µM; under setting [3], greater than 95 µM.
On to `CCCCOC(=O)c1ccc(NS(=O)(=O)c2cc(-c3nnnn3CC)ccc2OC)cc1`, for which the IC50 is > 100 µM (inactive) (AlphaScreen, mean of runs); greater than 100 µM under setting [1]; > 95 µM (inactive) (FP, mean of runs); greater than 95 µM under setting [2]; greater than 95 µM under setting [3].
Consider `CC(=O)Nc1ccccc1OCC(=O)N(Cc1ccccc1)C(C)C`, for which the IC50 (AlphaScreen, mean of runs) was > 100 µM (inactive); the IC50 under setting [1] was greater than 100 µM; the IC50 (FP, mean of runs) was > 95 µM (inactive); the IC50 under setting [2] was greater than 95 µM; the IC50 under setting [3] was greater than 95 µM.
Turning to `CCN(CC)C(=O)CSc1nnc(-c2c[nH]c3ccccc23)o1`, the IC50 is > 100 µM (inactive) (AlphaScreen, mean of runs); greater than 100 µM under setting [1]; > 95 µM (inactive) (FP, mean of runs); greater than 95 µM under setting [2]; greater than 95 µM under setting [3].
In the case of `O=C(CN1C2=NCCN2c2ccccc21)c1ccco1`, the IC50 is, setting by setting: (AlphaScreen, mean of runs) > 100 µM (inactive); under setting [1], greater than 100 µM; (FP, mean of runs) > 95 µM (inactive); under setting [2], greater than 95 µM; under setting [3], greater than 95 µM.
As to `CCOc1ccccc1C1CC(=O)NC2=C1C(=O)CC(C)(C)C2` (stereo not given), the IC50 runs as follows: (AlphaScreen, mean of runs) > 100 µM (inactive); under setting [1], greater than 100 µM; (FP, mean of runs) > 95 µM (inactive); under setting [2], greater than 95 µM; under setting [3], greater than 95 µM.
Regarding `CCCCC1CCC(C(=O)NC2CCS(=O)(=O)C2)CC1` (stereo not given), the IC50 is, setting by setting: (AlphaScreen, mean of runs) > 100 µM (inactive); under setting [1], greater than 100 µM; (FP, mean of runs) > 95 µM (inactive); under setting [2], greater than 95 µM; under setting [3], greater than 95 µM.
As for `CCOCCCNC(=O)C(c1ccc(C)cc1)N(Cc1cccs1)C(=O)c1ccccc1O` (stereo not given), the IC50 is, setting by setting: (AlphaScreen, mean of runs) > 100 µM (inactive); under setting [1], greater than 100 µM; (FP, mean of runs) > 95 µM (inactive); under setting [2], greater than 95 µM; under setting [3], greater than 95 µM.
As to `O=C(CCC(=O)Nc1ccccc1Cl)NN=C1CCCC1`, the IC50 entry (AlphaScreen, mean of runs) is “inactive”. In addition, the IC50 under setting [1] was 43.4 µM; the IC50 (FP, mean of runs) was > 95 µM (inactive); the IC50 under setting [2] was greater than 95 µM; the IC50 under setting [3] was greater than 95 µM.
Turning to `Cc1ccc(C(=O)C2CN3CCC2CC3)cc1` (stereo not given), the IC50 was > 100 µM (inactive) (AlphaScreen, mean of runs); greater than 100 µM under setting [1]; > 95 µM (inactive) (FP, mean of runs); greater than 95 µM under setting [2]; greater than 95 µM under setting [3].
In the case of `Cc1ccccc1Oc1ccc2c(c1)[C@@H]1C[C@H](N(C)C(=O)Nc3cc(Cl)cc(Cl)c3)[C@H]([C@H](C)O)C(=O)N1CC2`, the IC50 is 12.3 µM (AlphaScreen, mean of runs); 12.3 µM under setting [1]; > 95 µM (inactive) (FP, mean of runs); greater than 95 µM under setting [2]; greater than 95 µM under setting [3].
Turning to `CCCCOc1ccc(S(=O)(=O)N2CCN(C)CC2)cc1`, under “AlphaScreen, mean of runs”, the IC50 entry is “inactive”. The IC50 was 76.4 µM under setting [1]; > 95 µM (inactive) (FP, mean of runs); greater than 95 µM under setting [2]; greater than 95 µM under setting [3].
In the case of `O=[N+]([O-])c1ccc(Nc2nc(NC3CCCCC3)nc(N3CCCC3)n2)cc1`, the IC50 reads like this: (AlphaScreen, mean of runs) > 100 µM (inactive); under setting [1], greater than 100 µM; (FP, mean of runs) > 95 µM (inactive); under setting [2], greater than 95 µM; under setting [3], greater than 95 µM.
Take `CC(=O)Nc1ccc2nc3c(=O)n(C)c(=O)n(C)c3nc2c1`: the IC50 result (AlphaScreen, mean of runs) is “inactive”. Further, the IC50 under setting [1] came to 57.6 µM; the IC50 (FP, mean of runs) was > 95 µM (inactive); the IC50 under setting [2] is greater than 95 µM; the IC50 under setting [3] was greater than 95 µM.
Consider `C#CCCOC(=O)N1C2=NC(C(=O)OC)=C(C(=O)OC)[C@@H]3N(C)c4ccccc4[C@]23C[C@H]1CO`, for which the IC50 is, setting by setting: (AlphaScreen, mean of runs) 9.53 µM; under setting [1], 9.53 µM; (FP, mean of runs) > 95 µM (inactive); under setting [2], greater than 95 µM; under setting [3], greater than 95 µM.
With `Cn1c(SCc2nc3ccccc3s2)nnc1-c1cccs1`, the IC50 result (AlphaScreen, mean of runs) is “inactive”. The IC50 runs as follows: under setting [1], 46.6 µM; (FP, mean of runs) > 95 µM (inactive); under setting [2], greater than 95 µM; under setting [3], greater than 95 µM.
`O=C(O)CCCC(=O)N1CCc2cc(S(=O)(=O)N3CCc4ccccc43)ccc21`: the IC50 runs as follows: (AlphaScreen, mean of runs) > 100 µM (inactive); under setting [1], greater than 100 µM; (FP, mean of runs) > 95 µM (inactive); under setting [2], greater than 95 µM; under setting [3], greater than 95 µM.
Take `O=C(/C=C/c1ccco1)N/C(=C\c1ccccc1)C(=O)NCCc1nc2ccccc2[nH]1`: the IC50 is > 100 µM (inactive) (AlphaScreen, mean of runs); greater than 100 µM under setting [1]; > 95 µM (inactive) (FP, mean of runs); greater than 95 µM under setting [2]; greater than 95 µM under setting [3].
With `COc1cc(C(=O)NCc2ccccc2)cc(Br)c1OC`, the IC50 is > 100 µM (inactive) (AlphaScreen, mean of runs); greater than 100 µM under setting [1]; > 95 µM (inactive) (FP, mean of runs); greater than 95 µM under setting [2]; greater than 95 µM under setting [3].
For the compound `CC(=O)OC[C@@H]1CN(Cc2cccc(C(F)(F)F)c2)C[C@H](n2cnc3c(NCc4ccco4)ncnc32)O1`, the IC50 result (AlphaScreen, mean of runs) was “inactive”. Besides, the IC50 is, setting by setting: under setting [1], 87.9 µM; (FP, mean of runs) > 95 µM (inactive); under setting [2], greater than 95 µM; under setting [3], greater than 95 µM.
Regarding `COc1ccc(C2CC(O)(c3ccccc3)Oc3cc(OC)ccc32)cc1` (stereo not given), the IC50 is > 100 µM (inactive) (AlphaScreen, mean of runs); greater than 100 µM under setting [1]; > 95 µM (inactive) (FP, mean of runs); greater than 95 µM under setting [2]; greater than 95 µM under setting [3].
Regarding `CCCNC(=O)[C@H]1N2C(=O)c3c(ccc(OC)c3OC)C2SC1(C)C` (stereo not given in full), the IC50 entry (AlphaScreen, mean of runs) is “inactive”. In addition, the IC50 under setting [1] worked out at 62.5 µM; the IC50 (FP, mean of runs) was > 95 µM (inactive); the IC50 under setting [2] is greater than 95 µM; the concentration for half-maximal inhibition (IC50) under setting [3] is greater than 95 µM.
Turning to `Cc1cccc(N(CC(=O)NC2CCCC2)C(=O)CS(=O)CC(=O)Nc2ccc3c(c2)OCO3)c1C` (stereo not given), the IC50 was > 100 µM (inactive) (AlphaScreen, mean of runs); greater than 100 µM under setting [1]; > 95 µM (inactive) (FP, mean of runs); greater than 95 µM under setting [2]; greater than 95 µM under setting [3].
Consider `O=C(NCCN1CCOCC1)c1cc(-c2ccc(F)cc2)on1`, for which the IC50 reads like this: (AlphaScreen, mean of runs) > 100 µM (inactive); under setting [1], greater than 100 µM; (FP, mean of runs) > 95 µM (inactive); under setting [2], greater than 95 µM; under setting [3], greater than 95 µM.
With `Nc1cc(S(=O)(=O)O)cc([N+](=O)[O-])c1O`, the IC50 by setting is: (AlphaScreen, mean of runs) 4.28 µM; under setting [1], 4.28 µM; (FP, mean of runs) > 95 µM (inactive); under setting [2], greater than 95 µM; under setting [3], greater than 95 µM.
With `Cc1ccc(NC(=O)COc2ncnc3c(Cl)cc(Cl)cc23)cc1[N+](=O)[O-]`, the IC50 is, setting by setting: (AlphaScreen, mean of runs) > 100 µM (inactive); under setting [1], greater than 100 µM; (FP, mean of runs) > 95 µM (inactive); under setting [2], greater than 95 µM; under setting [3], greater than 95 µM.
With `CC(C)(C)n1nc(-c2ccc(F)cc2)c2c(N)ncnc21`, the IC50 is > 100 µM (inactive) (AlphaScreen, mean of runs); greater than 100 µM under setting [1]; > 95 µM (inactive) (FP, mean of runs); greater than 95 µM under setting [2]; greater than 95 µM under setting [3].

Values taken from PubChem BioAssay AID651650 (Sanford-Burnham Center for Chemical Genomics, 2012).
